Data: patent publication US11130769B2 (Prelude Therapeutics Incorporated, priority 2018, dated 2021)

Tests used:
H929 cells = assay: Cell viability assay (H929 10 FBS); type: cell-based; conditions: Homo sapiens, NCI-H929, 24 hours, read-out: H929_10FBS IC50
Summary of the method: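 ATP-based luminescence (CellTiter-Glo or ATPlite 1 Step, 30-60 min at RT) gauged viability of H929 myeloma cells after 24 h compound treatment at 37 °C. Cells plated at 4000 per well in 10% FBS RPMI 1640 supplemented with pyruvate, HEPES and glucose.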

MCL-1 = MCL-1 (Homo sapiens (Human), UniProt Q07820); assay: Cell free Mcl-1:Bim affinity assay (fluorescence polarization competition); type: binding; conditions: 15 nM MCL-1, 5 nM FITC-Bim, 1 hour at room temperature; class symbols; read-out: BIM_Ki
Chain of MCL-1 (Q07820 whole entry): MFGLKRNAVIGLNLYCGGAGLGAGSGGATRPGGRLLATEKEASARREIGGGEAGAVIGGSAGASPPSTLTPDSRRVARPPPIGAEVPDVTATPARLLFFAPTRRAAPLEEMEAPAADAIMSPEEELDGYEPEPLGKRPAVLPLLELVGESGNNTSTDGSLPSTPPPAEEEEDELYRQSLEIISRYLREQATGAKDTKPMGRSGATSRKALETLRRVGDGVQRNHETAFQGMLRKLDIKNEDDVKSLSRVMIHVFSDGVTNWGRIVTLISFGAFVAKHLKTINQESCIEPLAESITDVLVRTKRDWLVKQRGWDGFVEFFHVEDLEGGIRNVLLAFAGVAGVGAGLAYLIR
Summary of the method: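 Fluorescence polarization competition: 10-point 3-fold compound dilutions displaced 5 nM FITC-Bim from 15 nM MCL-1 over 1 h at room temperature. Ki was derived from the fitted IC50 using the Nikolovska-Coleska equation, with percent inhibition normalized to DMSO and positive controls.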

| IC50 (H929 cells) | Ki (MCL-1) | Structure (SMILES) |
| --- | --- | --- |
| < 1000 nM | 1 to 100 nM | CN1C/C=C/[C@@H](O)[C@@H]2CC[C@H]2CN2C[C@@]3(CCCc4cc(Cl)ccc43)COc3ccc(cc32)S(=O)(=O)NC(=O)C12CCC2 [Example 138, (3R,6R,7R,8E,22S)-6′-Chloro-7-hydroxy-11-methyl-12,12-(1,3-propylene)-15,15-dioxo-spiro[20-oxa-15-thia-1,11,14-triazatetracyclo[14.7.2.03,6.019,24]pentacosa[8,16(25),17,19(24)]tetraene-22,1′-tetralin]-13-one] |
| < 500 nM | < 1 nM | CN(C)C(=O)CO[C@H]1/C=C/COC(C)(C)C(=O)NS(=O)(=O)c2ccc3c(c2)N(C[C@@H]2CC[C@H]21)C[C@@]1(CCCc2cc(Cl)ccc21)CO3 [Example 140, 2-[(3R,6R,7S,8E,22S)-6′-Chloro-12,12-dimethyl-13,15,15-trioxo-spiro[11,20-dioxa-15-thia-1,14-diazatetracyclo[14.7.2.03,6.019,24]pentacosa-8,16,18,24-tetraene-22,1′-tetralin]-7-yl]oxy-N,N-dimethyl-acetamide] |
| < 500 nM | < 1 nM | CN(C)C(=O)CO[C@@H]1/C=C/COC(C)(C)C(=O)NS(=O)(=O)c2ccc3c(c2)N(C[C@@H]2CC[C@H]21)C[C@@]1(CCCc2cc(Cl)ccc21)CO3 [Example 141, 2-[(3R,6R,7R,8E,22S)-6′-Chloro-12,12-dimethyl-13,15,15-trioxo-spiro[11,20-dioxa-15-thia-1,14-diazatetracyclo[14.7.2.03,6.019,24]pentacosa-8,16,18,24-tetraene-22,1′-tetralin]-7-yl]oxy-N,N-dimethyl-acetamide] |
| < 1000 nM | < 1 nM | CN(C)C(=O)CO[C@H]1/C=C/COC2(CC2)C(=O)NS(=O)(=O)c2ccc3c(c2)N(C[C@@H]2CC[C@H]21)C[C@@]1(CCCc2cc(Cl)ccc21)CO3 [Example 142, 2-[(3R,6R,7S,8E,22S)-6′-Chloro-12,12-ethylene-13,15,15-trioxo-spiro[11,20-dioxa-15-thia-1,14-diazatetracyclo[14.7.2.03,6.019,24]pentacosa-8,16,18,24-tetraene-22,1′-tetralin]-7-yl]oxy-N,N-dimethyl-acetamide] |
| < 500 nM | < 1 nM | CN(C)C(=O)CO[C@@H]1/C=C/COC2(CC2)C(=O)NS(=O)(=O)c2ccc3c(c2)N(C[C@@H]2CC[C@H]21)C[C@@]1(CCCc2cc(Cl)ccc21)CO3 [Example 143, 2-[(3R,6R,7R,8E,22S)-6′-Chloro-12,12-ethylene-13,15,15-trioxo-spiro[11,20-dioxa-15-thia-1,14-diazatetracyclo[14.7.2.03,6.019,24]pentacosa-8,16,18,24-tetraene-22,1′-tetralin]-7-yl]oxy-N,N-dimethyl-acetamide] |
| > 1000 nM | 1 to 100 nM | C[C@@H]1C(=O)NS(=O)(=O)c2ccc3c(c2)N(C[C@@H]2CC[C@H]2[C@@H](O)/C=C/CN1C)C[C@@]1(CCCc2cc(Cl)ccc21)CO3 [Example 144, (3R,6R,7S,8E,12R,22S)-6′-Chloro-7-hydroxy-11,12-dimethyl-15,15-dioxo-spiro[20-oxa-15-thia-1,11,14-triazatetracyclo[14.7.2.03,6.019,24]pentacosa-8,16,18,24-tetraene-22,1′-tetralin]-13-one] |
| < 500 nM | < 1 nM | C[C@@H]1C(=O)NS(=O)(=O)c2ccc3c(c2)N(C[C@@H]2CC[C@H]2[C@@H](OC(=O)N(C)C)/C=C/CN1C)C[C@@]1(CCCc2cc(Cl)ccc21)CO3 [Example 145, [(3R,6R,7S,8E,12R,22S)-6′-Chloro-11,12-dimethyl-13,15,15-trioxo-spiro[20-oxa-15-thia-1,11,14-triazatetracyclo[14.7.2.03,6.019,24]pentacosa-8,16,18,24-tetraene-22,1′-tetralin]-7-yl] N,N-dimethylcarbamate] |
| < 500 nM | 1 to 100 nM | C[C@H]1NC/C=C/[C@H](OC(=O)N(C)C)[C@@H]2CC[C@H]2CN2C[C@@]3(CCCc4cc(Cl)ccc43)COc3ccc(cc32)S(=O)(=O)NC1=O [Example 146, [(3R,6R,7S,8E,12R,22S)-6′-Chloro-12-methyl-13,15,15-trioxo-spiro[20-oxa-15-thia-1,11,14-triazatetracyclo[14.7.2.03,6.019,24]pentacosa-8,16,18,24-tetraene-22,1′-tetralin]-7-yl] N,N-dimethylcarbamate] |
| < 500 nM | < 1 nM | C[C@H]1C(=O)NS(=O)(=O)c2ccc3c(c2)N(C[C@@H]2CC[C@H]2[C@@H](OC(=O)N(C)C)/C=C/CN1C)C[C@@]1(CCCc2cc(Cl)ccc21)CO3 [Example 147, [(3R,6R,7S,8E,12S,22S)-6′-Chloro-11,12-dimethyl-13,15,15-trioxo-spiro[20-oxa-15-thia-1,11,14-triazatetracyclo[14.7.2.03,6.019,24]pentacosa-8,16,18,24-tetraene-22,1′-tetralin]-7-yl] N,N-dimethylcarbamate] |
| < 500 nM | < 1 nM | CC1(C)OC/C=C/[C@H](OC(=O)N2CCN(CCO)CC2)[C@@H]2CC[C@H]2CN2C[C@@]3(CCCc4cc(Cl)ccc43)COc3ccc(cc32)S(=O)(=O)NC1=O [Example 148, [(3R,6R,7S,8E,22S)-6′-Chloro-12,12-dimethyl-13,15,15-trioxo-spiro[11,20-dioxa-15-thia-1,14-diazatetracyclo[14.7.2.03,6.019,24]pentacosa-8,16,18,24-tetraene-22,1′-tetralin]-7-yl] 4-(2-hydroxyethyl)piperazine-1-carboxylate] |
| < 500 nM | < 1 nM | CN1CCN(CCNC(=O)O[C@H]2/C=C/COC(C)(C)C(=O)NS(=O)(=O)c3ccc4c(c3)N(C[C@@H]3CC[C@H]32)C[C@@]2(CCCc3cc(Cl)ccc32)CO4)CC1 [Example 149, [(3R,6R,7S,8E,22S)-6′-Chloro-12,12-dimethyl-13,15,15-trioxo-spiro[11,20-dioxa-15-thia-1,14-diazatetracyclo[14.7.2.03,6.019,24]pentacosa-8,16,18,24-tetraene-22,1′-tetralin]-7-yl] N-[2-(4-methylpiperazin-1-yl)ethyl]carbamate] |
| < 1000 nM | < 1 nM | CC1(C)OC/C=C/[C@H](OC(=O)NCCN2CCC(O)CC2)[C@@H]2CC[C@H]2CN2C[C@@]3(CCCc4cc(Cl)ccc43)COc3ccc(cc32)S(=O)(=O)NC1=O [Example 150, [(3R,6R,7S,8E,22S)-6′-Chloro-12,12-dimethyl-13,15,15-trioxo-spiro[11,20-dioxa-15-thia-1,14-diazatetracyclo[14.7.2.03,6.019,24]pentacosa-8,16,18,24-tetraene-22,1′-tetralin]-7-yl] N-[2-(4-hydroxy-1-piperidyl)ethyl]carbamate] |
| < 500 nM | < 1 nM | CN1CC[C@H](NC(=O)O[C@H]2/C=C/COC(C)(C)C(=O)NS(=O)(=O)c3ccc4c(c3)N(C[C@@H]3CC[C@H]32)C[C@@]2(CCCc3cc(Cl)ccc32)CO4)C1 [Example 151, [(3R,6R,7S,8E,22S)-6′-Chloro-12,12-dimethyl-13,15,15-triox-spiro[11,20-dioxa-15-thia-1,14-diazatetracyclo[14.7.2.03,6.019,24]pentacosa-8,16,18,24-tetraene-22,1′-tetralin]-7-yl] N-[(3S)-1-methylpyrrolidin-3-yl]carbamate] |
| < 500 nM | < 1 nM | CN1CC[C@@H](NC(=O)O[C@H]2/C=C/COC(C)(C)C(=O)NS(=O)(=O)c3ccc4c(c3)N(C[C@@H]3CC[C@H]32)C[C@@]2(CCCc3cc(Cl)ccc32)CO4)C1 [Example 152, [(3R,6R,7S,8E,22S)-6′-Chloro-12,12-dimethyl-13,15,15-trioxo-spiro[11,20-dioxa-15-thia-1,14-diazatetracyclo[14.7.2.03,6.019,24]pentacosa-8,16,18,24-tetraene-22,1′-tetralin]-7-yl] N-[(3R)-1-methylpyrrolidin-3-yl]carbamate] |
| < 500 nM | < 1 nM | CC1(C)OC/C=C/[C@H](OC(=O)N2CC(O)C2)[C@@H]2CC[C@H]2CN2C[C@@]3(CCCc4cc(Cl)ccc43)COc3ccc(cc32)S(=O)(=O)NC1=O [Example 153] |
| < 500 nM | < 1 nM | CN(C)[C@H]1CCN(C(=O)O[C@H]2/C=C/COC(C)(C)C(=O)NS(=O)(=O)c3ccc4c(c3)N(C[C@@H]3CC[C@H]32)C[C@@]2(CCCc3cc(Cl)ccc32)CO4)C1 [Example 154, [(3R,6R,7S,8E,22S)-6′-Chloro-12,12-dimethyl-13,15,15-trioxo-spiro[11,20-dioxa-15-thia-1,14-diazatetracyclo[14.7.2.03,6.019,24]pentacosa-8,16,18,24-tetraene-22,1′-tetralin]-7-yl] (3S)-3-(dimethylamino)pyrrolidine-1-carboxylate] |
| < 500 nM | < 1 nM | CN(C)CCNC(=O)O[C@H]1/C=C/COC(C)(C)C(=O)NS(=O)(=O)c2ccc3c(c2)N(C[C@@H]2CC[C@H]21)C[C@@]1(CCCc2cc(Cl)ccc21)CO3 [Example 155, [(3R,6R,7S,8E,22S)-6′-Chloro-12,12-dimethyl-13,15,15-trioxo-spiro[11,20-dioxa-15-thia-1,14-diazatetracyclo[14.7.2.03,6.019,24]pentacosa-8,16,18,24-tetraene-22,1′-tetralin]-7-yl] N-[2-(dimethylamino)ethyl]carbamate] |
| < 500 nM | < 1 nM | CNC1CN(C(=O)O[C@H]2/C=C/COC(C)(C)C(=O)NS(=O)(=O)c3ccc4c(c3)N(C[C@@H]3CC[C@H]32)C[C@@]2(CCCc3cc(Cl)ccc32)CO4)C1 [Example 156, [(3R,6R,7S,8E,22S)-6′-Chloro-12,12-dimethyl-13,15,15-trioxo-spiro[11,20-dioxa-15-thia-1,14-diazatetracyclo[14.7.2.03,6.019,24]pentacosa-8,16,18,24-tetraene-22,1′-tetralin]-7-yl] 3-(methylamino)azetidine-1-carboxylate] |
